# Laboratory results as given in publication PMC5218480 (PLoS ONE, 2017).
# System: MV-4-11 cells
# Test: Gene expression microarray analysis (Affymetrix PrimeView) and GSEA
# Type: cell-based, human
# Design: RFU PODN (11730768_x_at) / Fold change /veh PODN (11730768_x_at) / RFU LINC00158 (11744669_a_at) / Fold change /veh LINC00158 (11744669_a_at) / RFU DUSP10 (11751237_a_at) / Fold change /veh DUSP10 (11751237_a_at) / RFU ID3 (11757404_x_at) / Fold change /veh ID3 (11757404_x_at) / RFU PLEKHG5 (11737974_s_at) / Fold change /veh PLEKHG5 (11737974_s_at) / RFU LRRC4B (11730491_at) / Fold change /veh LRRC4B (11730491_at) / RFU GIMAP4 (11747438_a_at) / Fold change /veh GIMAP4 (11747438_a_at) / RFU KRT8 (11758183_x_at) / Fold change /veh KRT8 (11758183_x_at) / RFU CNN1 (11734310_a_at) / Fold change /veh CNN1 (11734310_a_at) / RFU VPS37D (11726825_at) / Fold change /veh VPS37D (11726825_at) / RFU C10orf10 (11716522_x_at) / Fold change /veh C10orf10 (11716522_x_at) / RFU KIR2DL2 /// KIR2DL4 /// KIR2DL5A /// KIR2DL5B /// KIR2DS1 /// KIR2DS2 /// KIR2DS3 /// KIR2DS4 /// KIR3DL3 /// KIR3DL3 /// KIR3DS1 (11738374_at) / Fold change /veh KIR2DL2 /// KIR2DL4 /// KIR2DL5A /// KIR2DL5B /// KIR2DS1 /// KIR2DS2 /// KIR2DS3 /// KIR2DS4 /// KIR3DL3 /// KIR3DL3 /// KIR3DS1 (11738374_at) / RFU C1QL1 (11718748_at) / Fold change /veh C1QL1 (11718748_at) / RFU TMPRSS4 (11747572_a_at) / Fold change /veh TMPRSS4 (11747572_a_at) / RFU HAMP (11756126_x_at) / Fold change /veh HAMP (11756126_x_at) / RFU RNFT2 (11725882_a_at) / Fold change /veh RNFT2 (11725882_a_at) / RFU NR4A2 (11747474_a_at) / Fold change /veh NR4A2 (11747474_a_at) / RFU ABCC12 (11746883_a_at) / Fold change /veh ABCC12 (11746883_a_at) / RFU TMEM136 (11760407_x_at) / Fold change /veh TMEM136 (11760407_x_at) / RFU CLDN22 /// WWC2 (11732394_at) / Fold change /veh CLDN22 /// WWC2 (11732394_at) / RFU HLA-DPB1 (11760878_x_at) / Fold change /veh HLA-DPB1 (11760878_x_at) / RFU SPINT1 (11716480_a_at) / Fold change /veh SPINT1 (11716480_a_at) / RFU GAP43 (11754022_s_at) / Fold change /veh GAP43 (11754022_s_at) / RFU A4GNT (11735810_at) / Fold change /veh A4GNT (11735810_at) / RFU PRB3 (11715151_x_at) / Fold change /veh PRB3 (11715151_x_at) / RFU TUBB4B (11761932_at) / Fold change /veh TUBB4B (11761932_at) / RFU CAPN14 (11732068_a_at) / Fold change /veh CAPN14 (11732068_a_at) / RFU TMCC2 (11721928_a_at) / Fold change /veh TMCC2 (11721928_a_at) / RFU IRGQ (11745062_a_at) / Fold change /veh IRGQ (11745062_a_at) / RFU FAM174B (11720279_a_at) / Fold change /veh FAM174B (11720279_a_at) / RFU TMPRSS4 (11748680_a_at) / Fold change /veh TMPRSS4 (11748680_a_at) / RFU FAM212B (11763350_a_at) / Fold change /veh FAM212B (11763350_a_at) / RFU PLEKHG5 (11743358_a_at) / Fold change /veh PLEKHG5 (11743358_a_at) / RFU ZSCAN30 (11745921_a_at) / Fold change /veh ZSCAN30 (11745921_a_at) / RFU CMKLR1 (11741424_a_at) / Fold change /veh CMKLR1 (11741424_a_at) / RFU LOC101060620 /// MAPK8IP1 (11723275_at) / Fold change /veh LOC101060620 /// MAPK8IP1 (11723275_at) / RFU SPTSSB (11747773_x_at) / Fold change /veh SPTSSB (11747773_x_at) / RFU PRSS12 (11739890_at) / Fold change /veh PRSS12 (11739890_at) / RFU BIN1 (11741810_x_at) / Fold change /veh BIN1 (11741810_x_at) / RFU WNT11 (11732464_a_at) / Fold change /veh WNT11 (11732464_a_at) / RFU C10orf10 (11716521_a_at) / Fold change /veh C10orf10 (11716521_a_at) / RFU C5orf56 (11738089_at) / Fold change /veh C5orf56 (11738089_at) / RFU CYB561 (11721691_x_at) / Fold change /veh CYB561 (11721691_x_at) / RFU ANKRD19P (11752326_a_at) / Fold change /veh ANKRD19P (11752326_a_at) / RFU OR2T12 /// OR2T33 /// OR2T8 (11738714_s_at) / Fold change /veh OR2T12 /// OR2T33 /// OR2T8 (11738714_s_at) / RFU VCAN (11748164_a_at) / Fold change /veh VCAN (11748164_a_at) / RFU JSRP1 (11732532_at) / Fold change /veh JSRP1 (11732532_at) / RFU KRTAP10-11 (11738290_x_at) / Fold change /veh KRTAP10-11 (11738290_x_at) / RFU MYO3A (11730013_a_at) / Fold change /veh MYO3A (11730013_a_at) / RFU EBF3 (11725865_a_at) / Fold change /veh EBF3 (11725865_a_at) / RFU CAMK2N1 (11719241_x_at) / Fold change /veh CAMK2N1 (11719241_x_at) / RFU C5orf56 (11738088_a_at) / Fold change /veh C5orf56 (11738088_a_at) / RFU OLFML3 (11715873_a_at) / Fold change /veh OLFML3 (11715873_a_at) / RFU LOC100653217 /// NTM (11731650_a_at) / Fold change /veh LOC100653217 /// NTM (11731650_a_at) / RFU MAPK11 (11762145_a_at) / Fold change /veh MAPK11 (11762145_a_at) / RFU FIZ1 (11724087_x_at) / Fold change /veh FIZ1 (11724087_x_at) / RFU OASL (11726364_x_at) / Fold change /veh OASL (11726364_x_at) / RFU SOX15 (11748057_x_at) / Fold change /veh SOX15 (11748057_x_at) / RFU CD79A (11719716_a_at) / Fold change /veh CD79A (11719716_a_at) / RFU HIST1H1D (11736915_at) / Fold change /veh HIST1H1D (11736915_at) / RFU CASKIN2 (11723855_a_at) / Fold change /veh CASKIN2 (11723855_a_at) / RFU LOC730098 (11760151_x_at) / Fold change /veh LOC730098 (11760151_x_at) / RFU OR4N2 (11742367_at) / Fold change /veh OR4N2 (11742367_at) / RFU PRRT2 (11749266_a_at) / Fold change /veh PRRT2 (11749266_a_at) / RFU SNX32 (11753110_a_at) / Fold change /veh SNX32 (11753110_a_at) / RFU CDHR5 (11726645_a_at) / Fold change /veh CDHR5 (11726645_a_at) / RFU RCAN1 (11760418_a_at) / Fold change /veh RCAN1 (11760418_a_at) / RFU FAM167A (11723789_a_at) / Fold change /veh FAM167A (11723789_a_at) / RFU FAM26E (11764081_at) / Fold change /veh FAM26E (11764081_at) / RFU ISYNA1 (11749810_s_at) / Fold change /veh ISYNA1 (11749810_s_at) / RFU ACY1 (11761880_at) / Fold change /veh ACY1 (11761880_at) / RFU 11764098_at / Fold change /veh 11764098_at / RFU SAMD14 (11745864_x_at) / Fold change /veh SAMD14 (11745864_x_at) / RFU NPB (11741838_a_at) / Fold change /veh NPB (11741838_a_at) / RFU TMPRSS6 (11731388_a_at) / Fold change /veh TMPRSS6 (11731388_a_at) / RFU KRTAP10-2 (11738614_at) / Fold change /veh KRTAP10-2 (11738614_at) / RFU ARHGAP8 /// PRR5-ARHGAP8 (11727945_x_at) / Fold change /veh ARHGAP8 /// PRR5-ARHGAP8 (11727945_x_at) / RFU KRTAP5-7 /// NADSYN1 (11734609_at) / Fold change /veh KRTAP5-7 /// NADSYN1 (11734609_at) / RFU RASL12 (11751679_a_at) / Fold change /veh RASL12 (11751679_a_at) / RFU CDKN2B (11736163_a_at) / Fold change /veh CDKN2B (11736163_a_at) / RFU PRF1 (11729649_at) / Fold change /veh PRF1 (11729649_at) / RFU, ZNF638 /// ZNF638-IT1 / Fold change vs veh, ZNF638 /// ZNF638-IT1 / RFU, PANK3 / Fold change vs veh, PANK3 / RFU, SH3YL1 / Fold change vs veh, SH3YL1 / RFU, ZEB2 / Fold change vs veh, ZEB2 / RFU, NRIP1 / Fold change vs veh, NRIP1 / RFU, PTTG1IP / Fold change vs veh, PTTG1IP / RFU, CAPN2 / Fold change vs veh, CAPN2 / RFU, MED14 / Fold change vs veh, MED14 / RFU, SNORA58 / Fold change vs veh, SNORA58 / RFU, C1orf63 / Fold change vs veh, C1orf63 / RFU, LRRFIP1 / Fold change vs veh, LRRFIP1 / RFU, NDUFAF7 / Fold change vs veh, NDUFAF7 / RFU, SLC12A2 / Fold change vs veh, SLC12A2 / RFU, IBTK / Fold change vs veh, IBTK / RFU, ESF1 / Fold change vs veh, ESF1 / Fold change vs veh, TMEM50B / RFU, TAOK1 / Fold change vs veh, TAOK1 / RFU, ACBD3 / Fold change vs veh, ACBD3 / RFU, TMA16 / Fold change vs veh, TMA16 / RFU, RWDD3 / Fold change vs veh, RWDD3 / RFU, BCAT1 / Fold change vs veh, BCAT1 / RFU, EDEM3 / Fold change vs veh, EDEM3 / RFU, TMEM33 / Fold change vs veh, TMEM33 / RFU, WDR75 / Fold change vs veh, WDR75 / RFU, AHCTF1 / Fold change vs veh, AHCTF1 / RFU, TFRC / Fold change vs veh, TFRC / RFU, ZDHHC17 / Fold change vs veh, ZDHHC17 / RFU, NOM1 / Fold change vs veh, NOM1 / RFU, ARL8B / Fold change vs veh, ARL8B / RFU, ZBTB11 / Fold change vs veh, ZBTB11 / RFU, TAMM41 / Fold change vs veh, TAMM41 / RFU, KIAA1704 /// LOC100996395 / Fold change vs veh, KIAA1704 /// LOC100996395 / RFU, ING1 / Fold change vs veh, ING1 / RFU, TRMT61B / Fold change vs veh, TRMT61B / RFU, FUBP3 / Fold change vs veh, FUBP3 / RFU, TP53 / Fold change vs veh, TP53 / RFU, TNKS2 / Fold change vs veh, TNKS2 / RFU, ZFP14 / Fold change vs veh, ZFP14 / RFU, ACTR2 / Fold change vs veh, ACTR2 / RFU, PPP3R1 / Fold change vs veh, PPP3R1 / RFU, PIK3R1 / Fold change vs veh, PIK3R1 / RFU, HNRNPA1 / Fold change vs veh, HNRNPA1 / RFU, RNF170 / Fold change vs veh, RNF170 / RFU, ZNF28 / Fold change vs veh, ZNF28 / RFU, RNGTT / Fold change vs veh, RNGTT / RFU, OGT / Fold change vs veh, OGT / RFU, BRD1 / Fold change vs veh, BRD1 / RFU, MARS / Fold change vs veh, MARS / RFU, ZNF655 / Fold change vs veh, ZNF655 / RFU, FAHD1 / Fold change vs veh, FAHD1 / RFU, BDP1 / Fold change vs veh, BDP1 / RFU, LRRCC1 / Fold change vs veh, LRRCC1 / RFU, ARID1A / Fold change vs veh, ARID1A / RFU, ZNF146 / Fold change vs veh, ZNF146 / RFU, ZNF330 / Fold change vs veh, ZNF330 / RFU, GPN3 / Fold change vs veh, GPN3 / RFU, C9orf123 / Fold change vs veh, C9orf123 / RFU, N4BP2L2 / Fold change vs veh, N4BP2L2 / RFU, ARFIP1 / Fold change vs veh, ARFIP1 / RFU, FAM179B / Fold change vs veh, FAM179B / RFU, BCL10 / Fold change vs veh, BCL10 / RFU, UHRF1BP1L / Fold change vs veh, UHRF1BP1L / RFU, BET1 / Fold change vs veh, BET1 / RFU, CNOT2 / Fold change vs veh, CNOT2 / RFU, ZNF268 / Fold change vs veh, ZNF268 / Fold change vs veh, ZNF507 / RFU, DGCR2 / Fold change vs veh, DGCR2 / RFU, WDSUB1 / Fold change vs veh, WDSUB1 / Fold change vs veh, HSP90B1 /// MIR3652 / RFU, ADSS / Fold change vs veh, ADSS / RFU, GK / Fold change vs veh, GK / RFU, ZNF148 / Fold change vs veh, ZNF148 / RFU, TAF9 / Fold change vs veh, TAF9 / RFU, SLC1A5 / Fold change vs veh, SLC1A5 / RFU, SLMO2 / Fold change vs veh, SLMO2 / RFU, ABCC4 / Fold change vs veh, ABCC4 / RFU, LOC101060439 /// RAP1B / Fold change vs veh, LOC101060439 /// RAP1B / RFU, RFX7 / Fold change vs veh, RFX7 / RFU, GTPBP10 / Fold change vs veh, GTPBP10 / RFU, CNEP1R1 / Fold change vs veh, CNEP1R1 / RFU, BIVM-ERCC5 /// ERCC5 / Fold change vs veh, BIVM-ERCC5 /// ERCC5 / RFU, ILF3 / Fold change vs veh, ILF3 / RFU 11762660_at / Fold change /veh 11762660_at / RFU VCAN (11757783_s_at) / Fold change /veh VCAN (11757783_s_at) / RFU DDX43 (11728927_at) / Fold change /veh DDX43 (11728927_at) / RFU KRT8 (11758188_x_at) / Fold change /veh KRT8 (11758188_x_at) / RFU NKD1 (11759106_at) / Fold change /veh NKD1 (11759106_at) / RFU SRD5A1 (11742802_a_at) / Fold change /veh SRD5A1 (11742802_a_at) / RFU TPSAB1 /// TPSB2 (11721975_s_at) / Fold change /veh TPSAB1 /// TPSB2 (11721975_s_at) / RFU GSTM3 (11746129_a_at) / Fold change /veh GSTM3 (11746129_a_at) / RFU IL23R (11737362_x_at) / Fold change /veh IL23R (11737362_x_at) / RFU TMEM51 (11727254_a_at) / Fold change /veh TMEM51 (11727254_a_at) / RFU PIWIL2 (11732686_x_at) / Fold change /veh PIWIL2 (11732686_x_at) / RFU ORM1 (11744905_x_at) / Fold change /veh ORM1 (11744905_x_at) / RFU CCDC152 (11743942_at) / Fold change /veh CCDC152 (11743942_at) / RFU ECM1 (11717891_a_at) / Fold change /veh ECM1 (11717891_a_at) / RFU IL23R (11748794_a_at) / Fold change /veh IL23R (11748794_a_at) / RFU TNFAIP8L3 (11732012_x_at) / Fold change /veh TNFAIP8L3 (11732012_x_at) / RFU MBOAT4 (11741988_at) / Fold change /veh MBOAT4 (11741988_at) / RFU 11764193_at / Fold change /veh 11764193_at / RFU TMEM53 (11763286_at) / Fold change /veh TMEM53 (11763286_at) / RFU MAGEB2 (11727129_at) / Fold change /veh MAGEB2 (11727129_at) / RFU TMEM200A (11744735_a_at) / Fold change /veh TMEM200A (11744735_a_at) / RFU CCDC152 (11751479_a_at) / Fold change /veh CCDC152 (11751479_a_at) / RFU FAM211A (11726209_a_at) / Fold change /veh FAM211A (11726209_a_at) / RFU RGS16 (11746705_a_at) / Fold change /veh RGS16 (11746705_a_at) / RFU VCAN (11755009_s_at) / Fold change /veh VCAN (11755009_s_at) / RFU RHOB (11743442_s_at) / Fold change /veh RHOB (11743442_s_at) / RFU RGS16 (11720943_a_at) / Fold change /veh RGS16 (11720943_a_at) / RFU RGS16 (11720944_at) / Fold change /veh RGS16 (11720944_at) / RFU, VPS4B / Fold change vs veh, VPS4B / RFU, CREB1 / Fold change vs veh, CREB1 / RFU, DNAJC13 / Fold change vs veh, DNAJC13 / RFU, GNAQ / Fold change vs veh, GNAQ / RFU, CDK5R1 / Fold change vs veh, CDK5R1 / RFU, ZRANB3 / Fold change vs veh, ZRANB3 / RFU, CUL4A / Fold change vs veh, CUL4A / RFU, CCNY / Fold change vs veh, CCNY / RFU, UFL1 / Fold change vs veh, UFL1 / RFU, COG3 / Fold change vs veh, COG3 / RFU, DIAPH2 / Fold change vs veh, DIAPH2 / RFU, SKA2 / Fold change vs veh, SKA2 / RFU, AFF3 / Fold change vs veh, AFF3 / RFU, LMF1 / Fold change vs veh, LMF1 / RFU, IPO11 / Fold change vs veh, IPO11 / RFU, DFFB / Fold change vs veh, DFFB / RFU, FOXP1 / Fold change vs veh, FOXP1 / RFU, CARD8 / Fold change vs veh, CARD8 / RFU, STRN3 / Fold change vs veh, STRN3 / RFU, ADK / Fold change vs veh, ADK / RFU, RASSF2 / Fold change vs veh, RASSF2 / RFU, WIPF1 / Fold change vs veh, WIPF1 / RFU, LARP1B / Fold change vs veh, LARP1B / RFU, RASA1 / Fold change vs veh, RASA1 / RFU, RB1 / Fold change vs veh, RB1 / RFU, PPFIA1 / Fold change vs veh, PPFIA1 / RFU, MAT2A / Fold change vs veh, MAT2A / RFU, CCT5 / Fold change vs veh, CCT5 / RFU, WDR92 / Fold change vs veh, WDR92 / RFU, CUX1 / Fold change vs veh, CUX1 / RFU, TTC7A / Fold change vs veh, TTC7A / RFU, TMEM135 / Fold change vs veh, TMEM135 / RFU, DEPTOR / Fold change vs veh, DEPTOR / RFU, CPM / Fold change vs veh, CPM / RFU, DNAJB6 / Fold change vs veh, DNAJB6 / RFU, CACNA2D3 / Fold change vs veh, CACNA2D3 / RFU, DTX4 / Fold change vs veh, DTX4 / RFU, TFCP2 / Fold change vs veh, TFCP2 / RFU, GMCL1 /// GMCL1P1 / Fold change vs veh, GMCL1 /// GMCL1P1 / RFU, AEBP2 / Fold change vs veh, AEBP2 / RFU, SNHG1 /// SNORD22 /// SNORD25 /// SNORD26 /// SNORD27 /// SNORD28 /// SNORD29 /// SNORD31 / Fold change vs veh, SNHG1 /// SNORD22 /// SNORD25 /// SNORD26 /// SNORD27 /// SNORD28 /// SNORD29 /// SNORD31 / Fold change (Aza/veh), C12orf56 (ProbeSet 11735607_a_at) / Fold change (ACY-1035/veh), C12orf56 (ProbeSet 11735607_a_at) / Fold change (Aza/veh), FGFR1OP (ProbeSet 11751329_s_at) / Fold change (ACY-1035/veh), FGFR1OP (ProbeSet 11751329_s_at) / Fold change (Aza/veh), VPS36 (ProbeSet 11739960_a_at) / Fold change (ACY-1035/veh), VPS36 (ProbeSet 11739960_a_at) / RFU SYPL1 (11715823_x_at) / Fold change /veh SYPL1 (11715823_x_at) / RFU IGFBP7 (11715501_s_at) / Fold change /veh IGFBP7 (11715501_s_at) / RFU REEP3 (11722064_at) / Fold change /veh REEP3 (11722064_at) / RFU IGLL1 (11728026_x_at) / Fold change /veh IGLL1 (11728026_x_at): dose or concentration left out as unconfirmed
# Conditions: ProbeSet 11758170_s_at; LIST D
smiles,measurement,value
Nc1ccc(-c2cccs2)cc1NC(=O)c1ccc2c(c1)cc(C1CC1)n2CCN1CCOCC1 [ACY-1035],"Fold change vs veh, DIAPH2",1.00
